From article PMC11926880, “Procognitive Potential of Neuroprotective Triazine 5-HT6 Receptor Antagonists Tested on Chronic Activity In Vivo in Rats: Computer-Aided Insight into the Role of Chalcogen-Differences on the Pharmacological Profile” (ACS Chemical Neuroscience, 2025)
Read-outs that look alike come from different tables or passages of the source.

Columns and labels:
[1] = tissue distribution pharmacokinetics after single i.p. administration; type: in vivo, rat; settings: male, Wistar, rat, ip; for Cmax: read-out: Cmax; for Tmax: read-out: Tmax (converted)
Description: Standard laboratory food (LSM-B) and filtered water as well as environment enrichment were freely available. Animals were randomly divided into treatment groups using a computer-based random order generator. All of the experiments were performed by two observers unaware of the treatment applied between 9:00 and 14:00 on separate groups of animals. Rats were injected with the investigated compounds once (in pharmacokinetic studies) and for 21 days (in behavioral studies), and afterward, behavioral tests were conducted and tissue collection was done, as required. For pharmacokinetic studies, animals were fasted prior to dosing by withholding food but not water overnight. After dosing, the food was withheld for an additional 8 h. All animals were used only once. Animals were handled every day and weighed every other day in the chronic part of the experiment. Procedures involving animals and their care were conducted in accordance with current European Community and Polish legislations on animal experimentation. Additionally, all efforts were made to minimize animals' suffering and to use only the number of animals necessary to produce reliable scientific data. The experimental protocols and procedures described were approved by the I Local Ethics Commission in Cracow (nos 309/2019 and 765/2023) and complied with the European Communities Council Directive of 24 November 24, 1986 (86/609/EEC) and were in accordance with the 1996 NIH Guide for the Care and Use of Laboratory Animals. The research program complies with the commonly accepted '3Rs' (replacement and reduction of animals, refinement of experimental conditions, and procedures to minimize the harm to animals). […] Moreover, five tissues (i.e., brain, heart, lungs, kidneys, and liver) were harvested and rinsed with cold saline. Blood was allowed to clot at room temperature for 15-20 min and then centrifuged (3000 rpm for 10 min). The obtained serum and tissues were stored at -80 °C until analysis. […] HPLC analysis with UV detection at 221 nm was performed at a 1 mL/min flow rate, and the column temperature was 38 °C. Before analysis, tissue samples were thawed, weighed (200-250 mg), and placed in 5 mL plastic tubes with four volumes (w/v) of PBS (pH 7.4) and homogenized individually using a […]-1 homogenizer (ART Prozess & Labortechnik GmbH & Co., Germany). […] The samples were alkalized with 50 μL of 4 M sodium hydroxide solution, vortex-mixed, and extracted with 1 mL of ethyl acetate/hexane (30/70, v/v) mixture on a shaker (VXR Vibrax, IKA, Germany) for 20 min. […] Then, the samples were shaken and centrifuged again. Finally, 60-90 μL of each acidic layer was injected into the HPLC system. […] The interday and intraday precision and accuracy of quality control samples evaluated in the serum and tissue homogenates were within 15%. […] The area under the serum concentration-time curve from time zero to time t (AUC0-t), where t is the time of the last measurable sample, was calculated according to the linear trapezoidal rule. The AUC from time zero to infinity (AUC0-∞) was estimated as AUC0-t + Ct/λz, where Ct was the serum concentration of the last measurable sample. The clearance (CL/F) was calculated as D/AUC0-∞, and the volume of distribution based on the terminal phase (Vz/F) was estimated as D/(λz·AUC0-∞), where F is the bioavailability of intraperitoneal administration. The MRT is calculated to be […], where AMUC0-∞ is the area under the first moment curve from the time of dosing to infinity. The peak serum concentration (Cmax) and the time to reach Cmax (Tmax) were read directly from the observations. […] Data were presented as mean ± SD.

[2] = tested on: HT-22 cell line; assay: protection against Aβ1–42, ROS (CellROX); type: cell-based, mouse; settings: 10 μM pretreatment 1 h, Aβ1–42 35 μM 16 h
Description: Cells were cultured in Dulbecco’s modified Eagle’s Medium-high glucose (DMEM, GlutaMAX ThermoFisher) supplemented with 10% inactivated fetal bovine serum heat (Thermo Fisher), 100 IU/mL penicillin (Merck), and 100 μg/mL streptomycin (Merck). Cells were cultured in flasks (area 175 cm^2, Nunc) and incubated at 37 °C, 5% CO2. To measure the neuroprotective effect against Aβ1–42, cells were placed in a 96-well culture plate (5 × 10^3 cells per well, Falcon).
Stock solutions were prepared at a concentration of 10 mM for the tested compounds. A minimum of 1 mg of each tested compound was weighed and dissolved in an appropriate volume of dimethyl sulfoxide (DMSO). Serial dilutions were prepared in DMSO, and then, the diluted compounds were transferred to phosphate-buffered saline (PBS), mixed, and put into a medium with adherent cells. Before the assays, eventual precipitation or opalescence was checked.
Aβ1–42 (Merck) was initially dissolved in 1,1,1,3,3,3- hexafluor-2-propanol (Merck). […] After this time, the Aβ1–42 solution was evaporated by using nitrogen gas. Next, DMSO was added to obtain a 2 mM stock solution of β-amyloid. […]
After the end of incubation with the tested compounds, the supernatant was removed, and cells were incubated with CellROX (5 μM) in DMEM FluoroBrite (ThermoFisher) for 1 h at 37 °C. The results are expressed as a percentage of control (Aβ1–42).

[3] = kidneys, 0.3 mg/kg, kidneys, 0.3 mg/kg i.p.
[4] = kidneys, 1 mg/kg, kidneys, 1.0 mg/kg i.p.
[5] = liver, 0.3 mg/kg, liver, 0.3 mg/kg i.p.
[6] = liver, 1 mg/kg, liver, 1.0 mg/kg i.p.
[7] = lungs, 0.3 mg/kg, lungs, 0.3 mg/kg i.p.
[8] = lungs, 1 mg/kg, lungs, 1.0 mg/kg i.p.

Structure (SMILES): CN1CCN(c2nc(N)nc(C(C)(C)Sc3ccc4ccccc4c3)n2)CC1 [WA-22, 4-(4-methylpiperazin-1-yl)-6-(2-(naphthalen-2-ylthio)propan-2-yl)-1,3,5-triazin-2-amine]
- Kp ([1]; heart/serum, 0.3 mg/kg, heart, 0.3 mg/kg i.p., read-out: AUC ratio (tissue-to-serum AUC0–t)): 2 ± 0.52
- Kp ([1]; heart/serum, 1 mg/kg, heart, 1.0 mg/kg i.p., read-out: AUC ratio (tissue-to-serum AUC0–t)): 2.63 ± 1.69
- Kp ([1]; heart/serum, 1 mg/kg, heart-to-serum, 1 mg/kg i.p., read-out: AUC0–∞ (ng·h/g)/AUC0–∞ (ng·h/mL)): 2.09 ± 2.71
- Kp ([1]; heart/serum, 1 mg/kg, heart-to-serum, 1 mg/kg i.p., read-out: Cmax (ng/g)/Cmax (ng/mL)): 2.61 ± 1.09
- MRT ([1]; brain, 0.3 mg/kg i.p.): 64.4 min
- MRT ([1]; brain, 1.0 mg/kg i.p.): 90.6 min
- MRT ([1]; heart, 0.3 mg/kg i.p.): 104 min
- MRT ([1]; heart, 1.0 mg/kg i.p.): 109 min
- MRT ([1]; kidneys, 0.3 mg/kg i.p.): 85.3 min
- MRT ([1]; kidneys, 1.0 mg/kg i.p.): 107 min
- MRT ([1]; liver, 0.3 mg/kg i.p.): 40.6 min
- MRT ([1]; liver, 1.0 mg/kg i.p.): 51.3 min
- MRT ([1]; lungs, 0.3 mg/kg i.p.): 130 min
- MRT ([1]; lungs, 1.0 mg/kg i.p.): 72.6 min
- Cmax [1, 3]: 72.3 ± 27.1 ng/g
- Tmax [1, 3]: 5 min
- Cmax [1, 4]: 247 ± 119 ng/g
- Tmax [1, 4]: 5 min
- Kp ([1]; kidneys/serum, 0.3 mg/kg, kidneys, 0.3 mg/kg i.p., read-out: AUC ratio (tissue-to-serum AUC0–t)): 3.93 ± 1.88
- Kp ([1]; kidneys/serum, 1 mg/kg, kidneys, 1.0 mg/kg i.p., read-out: AUC ratio (tissue-to-serum AUC0–t)): 5.47 ± 3.33
- Kp ([1]; kidneys/serum, 1 mg/kg, kidneys-to-serum, 1 mg/kg i.p., read-out: AUC0–∞ (ng·h/g)/AUC0–∞ (ng·h/mL)): 4.96 ± 3.2
- Kp ([1]; kidneys/serum, 1 mg/kg, kidneys-to-serum, 1 mg/kg i.p., read-out: Cmax (ng/g)/Cmax (ng/mL)): 3.41 ± 0.59
- Kp ([1]; liver (relative to serum), 1 mg/kg, liver, 1.0 mg/kg i.p., read-out: AUC ratio (tissue-to-serum AUC0–t)): 6.32 ± 4.96
- Cmax [1, 5]: 149 ± 34.8 ng/g
- Tmax [1, 5]: 5 min
- Cmax [1, 6]: 404 ± 101 ng/g
- Tmax [1, 6]: 5 min
- Kp ([1]; liver/serum, 0.3 mg/kg, liver, 0.3 mg/kg i.p., read-out: AUC ratio (tissue-to-serum AUC0–t)): 4.75 ± 1.57
- Kp ([1]; liver/serum, 1 mg/kg, liver-to-serum, 1 mg/kg i.p., read-out: AUC0–∞ (ng·h/g)/AUC0–∞ (ng·h/mL)): 5.11 ± 3.85
- Kp ([1]; liver/serum, 1 mg/kg, liver-to-serum, 1 mg/kg i.p., read-out: Cmax (ng/g)/Cmax (ng/mL)): 6.3 ± 2.69
- Kp ([1]; lungs (relative to serum), 1 mg/kg, lungs, 1.0 mg/kg i.p., read-out: AUC ratio (tissue-to-serum AUC0–t)): 14.1 ± 5.62
- Cmax [1, 7]: 214 ± 45.7 ng/g
- Tmax [1, 7]: 5 min
- Cmax [1, 8]: 744 ± 88.9 ng/g
- Tmax [1, 8]: 5 min
- Kp ([1]; lungs/serum, 0.3 mg/kg, lungs, 0.3 mg/kg i.p., read-out: AUC ratio (tissue-to-serum AUC0–t)): 11.1 ± 2.57
- Kp ([1]; lungs/serum, 1 mg/kg, lungs-to-serum, 1 mg/kg i.p., read-out: AUC0–∞ (ng·h/g)/AUC0–∞ (ng·h/mL)): 13.9 ± 7.95
- Kp ([1]; lungs/serum, 1 mg/kg, lungs-to-serum, 1 mg/kg i.p., read-out: Cmax (ng/g)/Cmax (ng/mL)): 15 ± 7.31
- decrease of ROS induced by Aβ [2]: only PPK-32 displayed the ability to decrease ROS
